tested on: Mus musculus; assay: Antimalarial activity against Plasmodium berghei K173 in mice (Mus musculus) by peroral administration using peanut oil; assay type: functional

Row | SMILES | SD50 | SD90
1 | C[C@@H]1CC[C@H]2[C@@H](C)C(Nc3ccc(Br)cc3)O[C@@H]3O[C@@]4(C)CC[C@@H]1[C@]32OO4 (stereo partly specified) | 2.7 mg/kg/day | 9.1 mg/kg/day
2 | Cc1ccc(NC2O[C@@H]3O[C@@]4(C)CC[C@H]5[C@H](C)CC[C@@H]([C@H]2C)[C@@]35OO4)cc1 (stereo partly specified) | 2.77 mg/kg/day | 6.08 mg/kg/day
3 | C[C@@H]1CC[C@H]2[C@@H](C)C(Nc3cccc(C(=O)O)c3)O[C@@H]3O[C@@]4(C)CC[C@@H]1[C@]32OO4 (stereo partly specified) | 2.76 mg/kg/day | 8.23 mg/kg/day
4 | C[C@@H]1CC[C@H]2[C@@H](C)C(Nc3cccc(Cl)c3)O[C@@H]3O[C@@]4(C)CC[C@@H]1[C@]32OO4 (stereo partly specified) | 1.62 mg/kg/day | 4.8 mg/kg/day
5 | C[C@@H]1CC[C@H]2[C@@H](C)C(Nc3ccccc3)O[C@@H]3O[C@@]4(C)CC[C@@H]1[C@]32OO4 (stereo partly specified) | 2.63 mg/kg/day | 7.3 mg/kg/day
6 | COc1ccc(NC2O[C@@H]3O[C@@]4(C)CC[C@H]5[C@H](C)CC[C@@H]([C@H]2C)[C@@]35OO4)cc1 (stereo partly specified) | 3.5 mg/kg/day | 11.23 mg/kg/day
7 | C[C@@H]1CC[C@H]2[C@@H](C)C(Nc3ccc(I)cc3)O[C@@H]3O[C@@]4(C)CC[C@@H]1[C@]32OO4 (stereo partly specified) | 4.56 mg/kg/day | 11.03 mg/kg/day
8 | C[C@@H]1CC[C@H]2[C@@H](C)C(Nc3ccc(C(=O)O)cc3)O[C@@H]3O[C@@]4(C)CC[C@@H]1[C@]32OO4 (stereo partly specified) | 1.36 mg/kg/day | 6.88 mg/kg/day
9 | C[C@@H]1CC[C@H]2[C@@H](C)C(Nc3ccc(Cl)cc3)O[C@@H]3O[C@@]4(C)CC[C@@H]1[C@]32OO4 (stereo partly specified) | 1.77 mg/kg/day | 4.5 mg/kg/day
10 | C[C@@H]1CC[C@H]2[C@@H](C)C(Nc3cccc(Br)c3)O[C@@H]3O[C@@]4(C)CC[C@@H]1[C@]32OO4 (stereo partly specified) | 3.4 mg/kg/day | 5.38 mg/kg/day
11 | C[C@@H]1CC[C@H]2[C@@H](C)C(=O)O[C@@H]3O[C@@]4(C)CC[C@@H]1[C@]32OO4 [ARTEMISININ] | 5.13 mg/kg/day | –

From ChEMBL document CHEMBL1151548 (1995)
